Values of other authors as cited in patent publication US8404891B2, “Storage-stable formulation of paracetamol in aqueous solution” (Neogen N.V., priority 2009, dated 2013).

Conditions: aqueous solution; K. T. Koshy et al., 1961

SMILES: CC(=O)Nc1ccc(O)cc1 [paracetamol, N-(4-hydroxy-phenyl)acetamide]
- pH at which rate of degradation is minimal: ~6
